# Measurements: patent publication US7141696B2, “Smooth muscle spasmolytic agents” (Bridge Pharma, Inc., priority 2003, dated 2006)
# Experiments:
# [1] = test system: muscarinic receptors; details: from prior publications and patents; cited from earlier work
# [2] = test system: smooth muscle; details: from prior patents; cited from earlier work
# [3] = test system: QTc interval; assay: Effects on the QT-interval of the ECG; set-up: species or system guinea pigs; details: guinea pig, in vivo
# Experimental: Anesthetized male guinea pigs (450–600 g) are used. The trachea is cannulated. Lead II electrocardiogram are recorded at 50 mm/sec. The is a 30 minute stabilization time after surgery, during which three baseline EKG recordings are made at 10-min intervals. Test article or vehicle are administered as an iv infusion over 30 min. ECG recordings are used to determine QT intervals and heart rates. To compensate for variations in heart rates, QTc intervals are calculated from QT- and RR-intervals as known to those skilled in the art. Prolongation of QTc is indicative of a prolonged action potential. Prolongation of QTc is a known cause of Torsades de Pointes ventricular fibrillation by drugs such as terodiline, terfenadine and astemizole (all of which have been withdrawn because of arrhythmogenic side effect).
# [4] = test system: bladder hyperactivity; details: cited from earlier work
SMILES,anticholinergic activity / inhibition of muscarinic receptors [1],non-cholinergic spasmolytic activities [2],delay of cardiac repolarization (prolongation of the QTc interval of the ECG) [3],bladder hyperactivity in patients suffering from urinary incontinence [4]
Cc1ccc(O)c(C(CCNC(C)C)c2ccccc2)c1 (centres unmarked) [DES-TOL],anticholinergic activity was further decreased,express non-cholinergic spasmolytic activities,–,–
Cc1ccc(O)c([C@@H](CCN(C(C)C)C(C)C)c2ccccc2)c1 [S-TOL],little anticholinergic activity,express non-cholinergic spasmolytic activities,–,–
CC(C)N(CC[C@H](c1ccccc1)c1cc(CO)ccc1O)C(C)C [Example 5HM],potent and non-selective inhibition of muscarinic receptors,–,–,–
"Cc1ccc(O)c([C@H](CCN(C(C)C)C(C)C)c2ccccc2)c1 [Tolterodine, R—N,N-diisopropyl-3-(2-hydroxy-5-methylphenyl)-3-phenylpropylamine]",potent and non-selective inhibition of muscarinic receptors,–,potently prolongs the QTc interval,reduce bladder hyperactivity
